{
  "source": "patent US20260151457A1",
  "about": "“Peptides and Fragments for Treating Diabetes and Associated Metabolic Diseases” (Betavive Ltd., priority 2024, published 2026)",
  "key": {"db/db mice": {"tested_on": "db/db mice", "assay": "Serum insulin in db/db mice after long-term IGF-2 treatment", "format": "in vivo", "settings": "12,000 μg/kg daily for 68 days, measured 6.5 weeks after end of treatment", "description": "In this experiment, one group of db/db mice (labeled FA X1) was injected with 3000 μg/kg of IGF-2 once a day for 68 days, a second group of db/db mice (labeled FA X4) was injected with a daily dose of 12000 μg/kg of IGF-2 divided in two injections per day for 68 days, and a third group of db/db mice was injected with saline. Serum insulin levels were measured 6.5 weeks after the end of the 68 day treatment. Treatment with the 12,000 μg/kg daily dose increased serum insulin levels by about 50% with respect to the control."}, "STZ-treated mice": {"tested_on": "STZ-treated mice", "assay": "Pancreas histology and insulin immunohistochemistry in STZ-treated mice", "format": "in vivo", "description": "FIG. 21 depicts pancreas histology results on STZ-treated mice. […] The non-control mice were treated once a day for 10 days with a 3000 μg/kg dose of IGF-2. The mice were sacrificed on day 35 and pancreas cells were assessed as being insulin positive or negative."}, "β-MIN6 cells": {"tested_on": "β-MIN6 cells", "assay": "Insulin secretion of β-MIN6 cells following glucose induction", "format": "cell-based, mouse", "settings": "IGF-2 5 nM, 20 nM, 80 nM, 1 week treatment", "source_text": "β-MIN6 cells serve as an in vitro model of mouse pancreatic islets. β-MIN6 cells were used as an in vitro model to measure the effects of treatment with IGF-2."}, "NOD mice": {"tested_on": "NOD mice", "assay": "Incidence of spontaneous autoimmune type 1 diabetes in NOD mice treated with IGF-2", "format": "in vivo", "description": "Non-Obese Diabetic (NOD) mice are a polygenic model for spontaneous autoimmune type 1 diabetes (T1D). NOD mice have an elevated risk for development of autoimmune type 1 diabetes. Thus, NOD mice were used to determine whether treatment IGF-2 reduces spontaneous development of type 1 diabetes.\nIn this experiment, one group of NOD mice (right panel) was injected with 3000 μg/kg of IGF-2 on each of 76 consecutive days, and a second group of NOD mice (left panel) was injected with saline. […] More specifically, at the end of the 76 days of treatment, only two of the treated mice had developed high glucose levels.\nFIG. 30A depicts how many NOD mice have developed autoimmune type I diabetes during an initial 66 days of treatment with IGF-2, and at various intervals post-treatment. In this experiment, one group of NOD mice was injected with 3000 μg/kg of IGF-2 on each of 66 consecutive days, and a second group of NOD mice was injected with saline.\nIn one exemplary experiment, NOD mice were treated with a 3000 μg/kg daily doses of IGF-2 for 150 days. ⅘ of the treated mice maintained normoglycemia compared to ¼ of the control mice. In another exemplary experiment, NOD mice were treated with a 3000 μg/kg daily dose of IGF-2 for 75 days with follow-up glucose measurements taken for an additional 90 days (during which IGF-2 was not administered). ⅝ of the treated mice maintained normoglycemia compared to 2/11 of the control mice. The average insulin secretion of the treated mice in both of these experiments was five times greater than the control mice."}},
  "data": [
    {"substance": "insulin-like growth factor 2 [IGF-2]", "values": [
      {"measurement": "Increase in serum insulin levels with respect to the control", "setting": "db/db mice", "value": "about 50%"},
      {"measurement": "Level of insulin in pancreas islets compared to a naïve mouse (IHC)", "setting": "STZ-treated mice; non-permanently cured mouse", "value": "lower level of insulin in its pancreas islets"},
      {"measurement": "Increase in the number of functional beta cells", "setting": "STZ-treated mice; permanently cured mice, 3000 μg/kg once a day for 10 days, sacrificed on day 35", "value": "four"},
      {"measurement": "Level of insulin in pancreas islets compared to a naïve mouse (IHC)", "setting": "STZ-treated mice; permanently cured mouse", "value": "higher level of insulin in its pancreas islets"},
      {"measurement": "Insulin secretion following glucose induction", "setting": "β-MIN6 cells", "value": "increases insulin secretion (following glucose induction) in a dose-dependent manner"},
      {"measurement": "Fraction of the treated mice that maintained normoglycemia", "setting": "NOD mice; 3000 μg/kg daily for 75 days, follow-up for an additional 90 days", "value": "⅝"},
      {"measurement": "Fraction of the treated mice that maintained normoglycemia", "setting": "NOD mice; 3000 μg/kg daily for 150 days", "value": "⅘"},
      {"measurement": "Incidence of spontaneous autoimmune type 1 diabetes", "setting": "NOD mice; 3000 μg/kg on each of 66 consecutive days and post-treatment", "value": "significantly reduced"},
      {"measurement": "Incidence of spontaneous autoimmune attack", "setting": "NOD mice; 3000 μg/kg on each of 76 consecutive days", "value": "reduced dramatically"},
      {"measurement": "Number of treated mice that had developed high glucose levels", "setting": "NOD mice; at the end of the 76 days of treatment with 3000 μg/kg", "value": "two"}
    ]}
  ]
}
